The results in this text go back to PMC11945486, “TAS1R2/TAS1R3 Single-Nucleotide Polymorphisms Affect Sweet Taste Receptor Activation by Sweeteners: The SWEET Project” (Nutrients, 2025).

The assay concerns the target T1, human TAS1R2-I191V (subunit alone) (Homo sapiens, UniProt Q8TE23, I191V).
T1 construct: expressed in transfected cells; host or cells: HEK293T-Gα16gust44
T1 sequence (Q8TE23 20-839 I191V): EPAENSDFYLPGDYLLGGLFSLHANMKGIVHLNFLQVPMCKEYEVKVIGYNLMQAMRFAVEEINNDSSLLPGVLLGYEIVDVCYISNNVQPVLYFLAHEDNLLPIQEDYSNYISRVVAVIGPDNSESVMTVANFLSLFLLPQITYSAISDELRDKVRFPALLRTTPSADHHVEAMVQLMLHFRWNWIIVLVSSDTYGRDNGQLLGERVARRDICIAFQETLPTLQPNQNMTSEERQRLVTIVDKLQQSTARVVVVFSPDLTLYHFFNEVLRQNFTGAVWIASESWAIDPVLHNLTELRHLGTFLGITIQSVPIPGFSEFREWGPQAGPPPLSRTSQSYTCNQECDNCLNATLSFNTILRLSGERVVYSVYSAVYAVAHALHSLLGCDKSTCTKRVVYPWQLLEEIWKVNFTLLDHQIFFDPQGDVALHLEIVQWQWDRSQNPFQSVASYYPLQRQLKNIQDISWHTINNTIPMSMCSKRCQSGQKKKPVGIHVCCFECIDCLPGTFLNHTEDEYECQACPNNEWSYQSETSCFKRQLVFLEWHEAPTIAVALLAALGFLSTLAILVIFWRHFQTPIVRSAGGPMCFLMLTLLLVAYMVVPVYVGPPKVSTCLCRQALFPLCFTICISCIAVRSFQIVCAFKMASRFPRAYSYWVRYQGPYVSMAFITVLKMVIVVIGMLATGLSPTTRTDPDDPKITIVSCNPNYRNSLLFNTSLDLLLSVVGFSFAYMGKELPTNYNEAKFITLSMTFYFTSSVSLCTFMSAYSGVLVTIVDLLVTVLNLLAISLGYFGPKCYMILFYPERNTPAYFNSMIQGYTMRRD
In words: Calcium mobilisation assay, TAS1R2-I191V subunit alone. The assay is classed as cell-based. From the text: The coding sequences for TAS1R2 and TAS1R3 were commercially synthesised, and the human codon was optimised for expression in human cells. The coding sequences of human TAS1R2 and TAS1R3 were subcloned and inserted into the mammalian expression vectors pcDNA6/myc-HisA and pcDNA4/myc-HisA (Invitrogen; Thermo Fisher Scientific; Illkirch, France) between the EcoRI and NotI restriction sites, generating the plasmids pcDNA6-TAS1R2 and pcDNA4-TAS1R3, respectively. To increase protein expression in mammalian cells, an upstream start codon was used, which was a sequence called MAX, corresponding to the QBI SP163 element also described in pcDNA4-HisMax (Invitrogen; Thermo Fisher Scientific; Illkirch, France). To measure the expression level of the receptor by immunohistochemistry, we used the FLAG sequence ([…]) in the C-terminal position, which encodes the FLAG tag epitope. […]
The HEK293T cells were kindly provided by Jay P. Slack (Givaudan Flavors Corporation; Cincinnati, OH, USA). […] The fluorescence intensity was measured for 90 s (excitation 488 nm, emission 510 nm) in an automated fluorometric FlexStation®3 Multi-Mode microplate reader (Molecular Devices; San Jose, CA, USA). […] The Ca^2+ changes were expressed as fractional changes in fluorescent light intensity: ΔF/F = (F − F0)/F0, where F was the fluorescent light intensity at each point, and F0 was the value of emitted fluorescent light prior to stimulus application. To calculate dose–response relationships, the changes in fluorescence upon stimulus application were averaged, mock-subtracted and baseline-corrected. […] The half-maximal effective concentrations (EC50 values) and maximal signal amplitudes were calculated using SigmaPlot software (version 15.0) (Systat Software; San Jose, CA, USA).
For in vitro calcium mobilisation assay performed on hTAS1R2-SNPs, hTAS1R3-SNPs and mTAS1R3-I60T, 6 to 7 concentrations were tested for each sweet compound, plus buffer alone. All concentration–receptor combinations were measured in duplicate, and each experiment was repeated at least 4 times (8 wells/concentration). […]
Background: Calcium flux is commonly read through the fluorescence of an indicator in the cells.

For orientation: EC50 means the concentration giving half of the maximal effect. As for `C=C(C)[C@@H]1CC=C(/C=N/O)CC1` [Perillartine, perillartine], the half-maximal effective concentration (EC50) came out at 390 ± 47 µM and the “R1 = Variant EC50/WT EC50” value amounted to 4.3. In addition, the “Max ΔF/F0” value (maximal signal amplitude) turned out to be 0.19 ± 0.01.
